Laboratory results: patent publication US12246022B2, “Compositions and methods for treating, preventing or reversing age associated inflammation and disorders” (BROWN UNIVERSITY, priority 2019, dated 2025)
Like-named read-outs stand apart in the source and are kept apart here.

How the values were obtained:
[1] = Table 13 Comparative Studies; cited from earlier work
[2] = test system: human LINE-1; assay: Human LINE-1 retrotransposition assay, related experiments with islatravir (pYX017, HeLa cells, Tables 12 and 13); format: cell-based
Description: In related experiments, islatravir and other compounds were tested for inhibition of retrotransposition activity of human LINE-1 in HeLa cells according to the following procedure.
HeLa cervical cancer cells were cultivated at 37° C. in a humidified 5% CO2 incubator in Dulbecco's Modified Eagle's Medium (DMEM)—high glucose, with 4500 mg/L glucose, L-glutamine, sodium pyruvate and sodium bicarbonate (Sigma), supplemented with 10% of heat inactivated fetal bovine serum (Thermo Fisher).
Assays were performed using reporter plasmid pYX017 as described (Xie, et al., 2011) with several modifications. The reporter assay was performed in 96-well white optical bottom plates. HeLa cells were seeded in wells 24 h prior to transfection and compound treatment so that cells were approximately 30% confluent on the day of transfection. Different cell plating densities were tested and a density of 2×10^3 cells was determined to be optimal.
Compounds were resuspended in DMSO. Serial dilutions (1:3) were prepared in DMSO. Medium containing different concentrations of the compounds were prepared by adding 2 μl of the compound dilution to 1 ml of the culture medium. The final concentration of DMSO in the medium was 0.2%.
FuGENE® HD transfection reagent (Promega, E2311, Lot 382574 and Lot 397842) was used to transfect the plasmids into the cells. The transfection reagent: DNA mixture was prepared in OpiMEM (Thermo Fisher) according to manufacturer's instructions. Different ratios of transfection reagent to DNA were tested and a ratio of 3:1 was determined to be optimal. Culture medium was removed from the cells and discarded. The transfection reagent: DNA mixture (5 μl) was mixed with the compound containing medium (100 μl/well) and this was added onto the cells of each well. Cells were incubated at 37° C./5% CO2 for different incubation time. A 72 h incubation time was determined to be optimal.
Luciferase reporter activity was quantified with the Dual-Luciferase® Reporter Assay System (Promega) according to manufacturer's instructions for multiwell plates except that cells were lysed directly on the multiwell plate with 30 μl of the passive lysis buffer (PLB) for 20 min at room temperature, with gentle shaking to ensure complete cell lysis.
Firefly and Renilla luciferase signals were measured using a SpectraMax i3x Multi-Mode Microplate Reader. Integration times of 100 ms and 10 ms were used to measure the Firefly and Renilla signals respectively. Relative L1 activity is calculated as Firefly/Renilla *1000 or Firefly/Renilla *10,000. Dose response inhibition data were fit to a four parameter logistic equation using non-linear regression (using Graphpad Prism 8), to determine IC50 values for each inhibitor.

[3] = Comparative studies: intracellular drug concentration relative to LINE-1 IC50 and huCSF/Plasma ratio; conditions: Table 13 Comparative Studies
[4] = test system: mouse LINE-1; assay: Mouse LINE-1 retrotransposition assay (dual luciferase pYX016 reporter, HeLa cells); format: cell-based
Description: Elvucitabine was obtained by custom synthesis. […] HeLa cervical cancer cells were cultivated at 37° C. in a humidified 5% CO2 incubator in Dulbecco's Modified Eagle's Medium (DMEM)-high glucose, with 4500 mg/L glucose, L-glutamine, sodium pyruvate and sodium bicarbonate (Sigma), supplemented with 10% of heat inactivated fetal bovine serum (Thermo Fisher). Assays were performed as described in Xie et al., 2011^151 with several modifications. The reporter assay was performed in 96 well white Optical bottom plates. 6000 HeLa cells were seeded in each well 24 hours prior transfection and compound treatment. All compounds were resuspended in DMSO. Stock solution concentrations varied from 50 mM to 1.25 mM depending of the solubility of the compound. Serial dilutions (1:3) were prepared in DMSO. Ten different concentrations of each compound were tested in triplicate. Medium containing different concentrations of the compounds were prepared by adding 2 μL of the compound dilution to 1 mL of the culture medium. The final concentration of DMSO in the medium was 0.2%. FuGENE® HD transfection reagent (Promega) was used to transfect the plasmid pYX016 into the cells. The transfection mix was prepared in OpiMEM (Thermo Fisher) using a reagent to DNA ratio of 3.5:1 according to manufacturer's instructions. Culture medium was removed from the cells and discarded. The transfection mix (5 μL) was mixed with the compound containing medium (100 μL/well) and this was added onto the cells of each well. Cells were incubated for 48H at 37° C./5% CO2. Luciferase reporter activity was quantified with the Dual-Luciferase® Reporter Assay System (Promega) according to manufacturer's instructions for multiwell plates with the following modification: Cells were lysed directly on the multiwell plate with 30 μL of the passive lysis buffer (PLB) for 20 min at room temperature, with gentle shaking to ensure complete cell lysis (instead of 20 μL of PLB for 15 min). Firefly and Renilla luciferase signals were measured using a SpectraMax i3x Multi-Mode Microplate Reader. […] Relative L1 activity was calculated as Firefly/Renilla *10,000. […] The experiment was performed twice, independently.

[5] = test system: human LINE-1; assay: Human LINE-1 retrotransposition assay (dual luciferase pYX017 reporter, HeLa cells, Table 11); format: cell-based
Description: Assays were performed as described in Xie et al., 2011^151 with several modifications. The reporter assay was performed in 96 well white Optical bottom plates. 6000 HeLa cells were seeded in each well 24 hours prior transfection and compound treatment. All compounds were resuspended in DMSO. Stock solution concentrations varied from 50 mM to 1.25 mM depending of the solubility of the compound. Serial dilutions (1:3) were prepared in DMSO. Ten different concentrations of each compound were tested in triplicate. Medium containing different concentrations of the compounds were prepared by adding 2 μL of the compound dilution to 1 mL of the culture medium. The final concentration of DMSO in the medium was 0.2%. FuGENE® HD transfection reagent (Promega) was used to transfect the plasmid pYX016 into the cells. The transfection mix was prepared in OpiMEM (Thermo Fisher) using a reagent to DNA ratio of 3.5:1 according to manufacturer's instructions. Culture medium was removed from the cells and discarded. The transfection mix (5 μL) was mixed with the compound containing medium (100 μL/well) and this was added onto the cells of each well. Cells were incubated for 48H at 37° C./5% CO2. Luciferase reporter activity was quantified with the Dual-Luciferase® Reporter Assay System (Promega) according to manufacturer's instructions for multiwell plates with the following modification: Cells were lysed directly on the multiwell plate with 30 μL of the passive lysis buffer (PLB) for 20 min at room temperature, with gentle shaking to ensure complete cell lysis (instead of 20 μL of PLB for 15 min). Firefly and Renilla luciferase signals were measured using a SpectraMax i3x Multi-Mode Microplate Reader. […] Relative L1 activity was calculated as Firefly/Renilla *10,000. […] The experiment was performed twice, independently. […] Because the human construct yields a lower signal, compounds were incubated with cells for 72 hours instead of 48 hours, and cells were seeded at a density of 2000/well instead of 6000/well. In addition, the transfection reagent to DNA ratio was 2:1 instead of 3.5:1.

[6] = test system: human LINE-1; assay: Islatravir Inhibitory Quotient (IQ) estimate for human LINE-1 in PBMC and brain; conditions: PBMC, intracellular EFdA-TP, used for IQ
[7] = test system: HIV WT; conditions: read-out: IC50 for HIV (intracellular EFdA-TP); cited from earlier work
[8] = in vivo; cited from earlier work
[9] = Homo sapiens, HeLa, Table 13 Comparative Studies, read-out: Human Line-1 IC50
[10] = pYX016, 48 H post-transfection, read-out: Mouse L1 activity inhibition IC50, Exp. 1
[11] = pYX016, 48 H post-transfection, read-out: Mouse L1 activity inhibition IC50, Exp. 2
[12] = pYX016, 48 H, n = 2, read-out: Mouse L1 activity inhibition IC50, Average
[13] = Homo sapiens, HeLa cells, pYX017, 72 h, n = 3, read-out: Human LINE-1 IC50, Average
[14] = Homo sapiens, HeLa cells, pYX017, 72 h, read-out: Human LINE-1 IC50, Exp.1
[15] = Homo sapiens, HeLa cells, pYX017, 72 h, read-out: Human LINE-1 IC50, Exp.2
[16] = Homo sapiens, HeLa cells, pYX017, 72 h, read-out: Human LINE-1 IC50, Exp. 3

Structure (SMILES)	IC50 [4, 10]	IC50 [4, 11]	IC50 [4, 12]	IC50 [2, 13]	IC50 [2, 14]	IC50 [2, 15]	IC50 [2, 16]	other results
Nc1nc(NC2CC2)c2ncn([C@H]3C=C[C@@H](CO)C3)c2n1 [Abacavir (ABC), Abacavir]								huCSF/Plasma [1]: 0.67; IC50 [2, 9]: 17100 nM; Human Line-1 Intracellular drug conc. (% of IC-50 conc.) [3]: 106%
Nc1ccn([C@H]2CO[C@@H](CO)S2)c(=O)n1 [Apricitabine]	4440 nM	3820 nM	4130 nM					
C#C[C@]1(COP(=O)(O)OP(=O)(O)OP(=O)(O)O)O[C@@H](n2cnc3c(N)nc(F)nc32)C[C@@H]1O [EFdA-TP]								EC50 [6]: 316 nM; IC50 [7]: 49 nM; intracellular T-half in human PBMC [8]: 78.5 to 128 h
O=C1Nc2ccc(Cl)cc2[C@@](C#CC2CC2)(C(F)(F)F)O1 [Efavirenz]				> 250 nM	> 50000 nM	> 250 nM		
Cc1ccnc2c1NC(=O)c1cccnc1N2C1CC1 [Nevirapine]				> 50000 nM	> 50000 nM	> 50000 nM		
Cc1nnc(C(=O)NC(C)(C)c2nc(C(=O)NCc3ccc(F)cc3)c(O)c(=O)n2C)o1 [Raltegravir potassium]				> 9860 nM	9860 nM	> 50000 nM	49300 nM	
Cc1cc(/C=C/C#N)cc(C)c1Nc1ccnc(Nc2ccc(C#N)cc2)n1 [Rilpivirine]				> 15100 nM	> 50000 nM	15100 nM	45500 nM	
Cc1cn([C@H]2C=C[C@@H](CO)O2)c(=O)[nH]c1=O [Stavudine]	1590 nM	1860 nM	1720 nM					huCSF/Plasma [1]: 0.2; IC50 [2, 9]: 750 nM; Human Line-1 Intracellular drug conc. (% of IC-50 conc.) [3]: 63%
Cc1cn([C@H]2C[C@H](N=[N+]=[N-])[C@@H](CO)O2)c(=O)[nH]c1=O [Zidovudine]				810 nM	410 nM	340 nM	1680 nM	

More lines, main results first:

IC50 [4, 10]	IC50 [4, 11]	IC50 [4, 12]	IC50 [2, 13]	IC50 [2, 14]	IC50 [2, 15]	IC50 [2, 16]	Structure (SMILES)	other results
			> 12400 nM	12400 nM	> 50000 nM		O=C(NCc1c(F)cc(F)cc1F)c1cn2c(c(O)c1=O)C(=O)N1[C@H]3CC[C@H](C3)O[C@@H]1C2 [Bictegravir]	
118 nM	105 nM	112 nM	100 nM	130 nM	120 nM	50 nM	C#C[C@@]1(CO)C=C[C@H](n2cc(C)c(=O)[nH]c2=O)O1 [Censavudine]	IC50 ([5]; pYX017, 72 H post-transfection, read-out: Human L1 activity inhibition IC50, Exp. 1): 53 nM; IC50 ([5]; pYX017, 72 H post-transfection, read-out: Human L1 activity inhibition IC50, Exp. 2): 92 nM; IC50 ([5]; pYX017, 72 H, n = 2, read-out: Human L1 activity inhibition IC50, Average): 72 nM; IC50 ([5]; read-out: human L1 inhibition IC50): ~100 nM; IC50 ([4]; read-out: mouse L1 inhibition IC50): ~100 nM
			> 9380 nM	9380 nM		> 20000 nM	C[C@@H]1CCO[C@H]2Cn3cc(C(=O)NCc4ccc(F)cc4F)c(=O)c(O)c3C(=O)N12 [Dolutegravir sodium]	
157 nM	151 nM	154 nM					CC(C)OC(=O)OCOP(=O)(CO[C@H](C)Cn1cnc2c(N)ncnc21)OCOC(=O)OC(C)C [Tenofovir Disiproxil, tenofovir disoproxil]	IC50 [2, 9]: 200 nM
3470 nM	4020 nM	3750 nM					C[C@H](Cn1cnc2c(N)ncnc21)OCP(=O)(O)O [Tenofovir]	IC50 ([2]; Table 13 Comparative Studies, read-out: Human Line-1 IC50): 2770 nM
